Measurements: BigSolDB 2.1

CC(C)C(=O)Nc1ccc([N+](=O)[O-])c(C(F)(F)F)c1
solubility (mole fraction)
Settings	278.15 K	283.15 K	288.15 K	293.15 K	298.15 K	303.15 K	308.15 K	313.15 K	318.15 K	323.15 K
in 1,4-dioxane	–	0.12	0.139	0.16	0.184	0.21	0.239	0.272	0.307	0.338
in acetonitrile	0.0592	0.0749	0.0939	0.115	0.144	0.177	0.217	0.262	0.314	0.375
in ethanol	0.0365	0.0435	0.0522	0.0617	0.0728	0.0858	0.1	0.116	0.136	0.156
in isopropanol	0.0583	0.0664	0.0756	0.0861	0.0979	0.11	0.125	0.14	0.155	0.176
in water	2.41e-07	3.17e-07	4.02e-07	5.23e-07	6.68e-07	8.38e-07	1.07e-06	1.32e-06	1.65e-06	2.06e-06
